From ChEMBL document CHEMBL1671744 (Antimicrob Agents Chemother, 2010)
≈ marks a conversion by molar mass, not a printed value. Where a SMILES comes first, the peptide text is derived from it. [ ]: non-standard residue; d: D form. The star is where a group is joined. Lauroyl = CCCCCCCCCCCC(=O)*

Assays:
[1] = Toxicity in RBC assessed as hemolysis at 50 uM at pH 7.4; assay type: cell-based; conditions: erythrocyte, pH 7.4, 50 µM
Escherichia coli [2] = experiment: Antimicrobial activity against Escherichia coli at pH 7.4; assay type: functional
Escherichia coli [3] = experiment: Antimicrobial activity against Escherichia coli at pH 5.5; assay type: functional
Aspergillus fumigatus [4] = experiment: Antimicrobial activity against Aspergillus fumigatus at pH 7.4; assay type: functional
Aspergillus fumigatus [5] = experiment: Antimicrobial activity against Aspergillus fumigatus at pH 5.5; assay type: functional
[6] = test system: Staphylococcus epidermidis; experiment: Antimicrobial activity against methicillin-resistant Staphylococcus epidermidis; assay type: functional
Staphylococcus aureus = experiment: Antimicrobial activity against methicillin-resistant Staphylococcus aureus; assay type: functional

Row | Structure (SMILES) | MHC [1] | MIC (Escherichia coli [2]) [µM] | MIC (Escherichia coli [3]) [µM] | MIC (Aspergillus fumigatus [4]) [µM] | MIC (Aspergillus fumigatus [5]) [µM] | MIC [6] [µg/mL] | MIC (Staphylococcus aureus) [µg/mL]
1 | CCCCCCCCCCCC(=O)N[C@H](CC(C)C)C(=O)N[C@@H](Cc1cnc[nH]1)C(=O)N[C@@H](Cc1cnc[nH]1)C(=O)N[C@H](CC(C)C)C(=O)N[C@H](CC(C)C)C(=O)N[C@@H](Cc1cnc[nH]1)C(=O)N[C@@H](Cc1cnc[nH]1)C(=O)N[C@H](CC(C)C)C(=O)N[C@H](CC(C)C)C(=O)N[C@@H](Cc1cnc[nH]1)C(=O)N[C@@H](Cc1cnc[nH]1)C(=O)N[C@H](CC(C)C)C(N)=O (Lauroyl-[dL]HH[dL][dL]HH[dL][dL]HH[dL]-NH2) | Non-toxic | > 100 | > 100 | > 100 | 6.2 (≈ 10.5 µg/mL) |  | 
2 | NC[C@H]1O[C@@H](O[C@@H]2[C@@H](O[C@@H]3O[C@H](COC(=O)Nc4ccccc4)[C@@H](O[C@@H]4O[C@H](CN)[C@@H](O)[C@H](O)[C@H]4N)[C@H]3OC(=O)Nc3ccccc3)[C@@H](O)[C@H](N)C[C@@H]2N)[C@H](N)[C@@H](O)[C@@H]1O.O=C(O)C(F)(F)F |  |  |  |  |  | 0.5 | 1
